Measured values taken from patent EP0093484A2, “Antibacterial monic acid derivatives” (BEECHAM GROUP PLC, priority 1982, dated 1983).
Values after ≈ are worked out from the molar mass of the structure shown.

Key:
[1] = system: E. coli E1; assay: Veterinary bacteria, MIC by two fold serial dilution in agar; details: Escherichia coli, E1, 18 h
Method: (§1) The activity of the compounds of the Examples against various organisms important in veterinary infections was determined using two fold serial dilutions in Diagnostic Sensitivity Test Agar inoculated with 10^4 organisms.

[2] = system: E. coli NCTC 10418; assay: as above; details: Escherichia coli, NCTC10418, 18 h
Method: as §1

[3] = system: M. suipneumoniae Str. 11; assay: Anti-mycoplasmal activity, MIC in Friis broth agarose; format: cell-based; details: Mesomycoplasma hyopneumoniae, 144 h, Friis broth solidified with 0.9% agarose, 6 days incubation at 37°C, read-out: MIC
[4] = system: M. dispar NCTC 10125; assay: as above; format: cell-based; details: 144 h, Friis broth solidified with 0.9% agarose, 6 days incubation at 37°C, read-out: MIC
[5] = system: S. typhimurium S18; assay: Veterinary bacteria, MIC by two fold serial dilution in agar; details: Salmonella enterica, TYPHIMURIUM, 18 h
Method: as §1

[6] = system: Bacillus subtilis 6633; assay: Human bacteria, MIC by serial dilution in nutrient agar; format: cell-based; details: nutrient agar with 5% chocolated horse blood, 18 hours at 37°C, read-out: MIC
[7] = system: Sarcina lutea 8340; assay: as above; format: cell-based; details: Micrococcus luteus, nutrient agar with 5% chocolated horse blood, 18 hours at 37°C, read-out: MIC
[8] = system: Staph. aureus W2827; assay: as above; format: cell-based; details: Staphylococcus aureus, nutrient agar with 5% chocolated horse blood, 18 hours at 37°C, read-out: MIC
[9] = system: S. dublin S7; assay: Veterinary bacteria, MIC by two fold serial dilution in agar; details: Salmonella enterica, S7, 18 h
Method: as §1

[10] = system: M. suipneumoniae J2206/183b; assay: Anti-mycoplasmal activity, MIC in Friis broth agarose; format: cell-based; details: Mesomycoplasma hyopneumoniae, 144 h, Friis broth solidified with 0.9% agarose, 6 days incubation at 37°C, read-out: MIC
[11] = system: Past. haemolytica PA5; assay: Veterinary bacteria, MIC by two fold serial dilution in agar; details: Mannheimia haemolytica, PA5, 18 h
Method: as §1

[12] = system: Strep. dysgalactiae SPD1; assay: as above; details: Streptococcus dysgalactiae, SPD1, 18 h
Method: as §1

[13] = system: Strep. pneumoniae CN33; assay: Human bacteria, MIC by serial dilution in nutrient agar; format: cell-based; details: Streptococcus pneumoniae, nutrient agar with 5% chocolated horse blood, 18 hours at 37°C, read-out: MIC
[14] = system: M. gallisepticum S6; assay: Anti-mycoplasmal activity, MIC in Friis broth agarose; format: cell-based; details: Mycoplasmoides gallisepticum, 144 h, Friis broth solidified with 0.9% agarose, 6 days incubation at 37°C, read-out: MIC
[15] = system: Staph. aureus B4 (pen. resistant); assay: Veterinary bacteria, MIC by two fold serial dilution in agar; details: Staphylococcus aureus, 18 h
Method: as §1

[16] = system: Haemophilus influenzae Q1; assay: Human bacteria, MIC by serial dilution in nutrient agar; format: cell-based; details: nutrient agar with 5% chocolated horse blood, 18 hours at 37°C, read-out: MIC
[17] = system: Bord. bronchiseptica BO9; assay: Veterinary bacteria, MIC by two fold serial dilution in agar; details: Bordetella bronchiseptica, BO9, 18 h
Method: as §1

[18] = system: Corynebacterium pyogenes CY1; assay: as above; details: CY1, 18 h
Method: as §1

[19] = system: M. bovigenitalium ATCC 14173; assay: Anti-mycoplasmal activity, MIC in Friis broth agarose; format: cell-based; details: 144 h, Friis broth solidified with 0.9% agarose, 6 days incubation at 37°C, read-out: MIC
[20] = system: Neisseria catarrhalis 1502; assay: Human bacteria, MIC by serial dilution in nutrient agar; format: cell-based; details: nutrient agar with 5% chocolated horse blood, 18 hours at 37°C, read-out: MIC
[21] = system: P. mirabilis 889; assay: as above; format: cell-based; details: Proteus mirabilis, nutrient agar with 5% chocolated horse blood, 18 hours at 37°C, read-out: MIC
[22] = system: E. coli ESS; assay: as above; format: cell-based; details: Escherichia coli, nutrient agar with 5% chocolated horse blood, 18 hours at 37°C, read-out: MIC
[23] = system: M. suipneumoniae JF 435; assay: Anti-mycoplasmal activity, MIC in Friis broth agarose; format: cell-based; details: Mesomycoplasma hyopneumoniae, JF435, 144 h, Friis broth solidified with 0.9% agarose, 6 days incubation at 37°C, read-out: MIC
[24] = system: Haemophilus influenzae Wy21; assay: Human bacteria, MIC by serial dilution in nutrient agar; format: cell-based; details: nutrient agar with 5% chocolated horse blood, 18 hours at 37°C, read-out: MIC
[25] = system: M. hyorhinis ATCC 23234; assay: Anti-mycoplasmal activity, MIC in Friis broth agarose; format: cell-based; details: Mesomycoplasma hyorhinis, ATCC23234, 144 h, Friis broth solidified with 0.9% agarose, 6 days incubation at 37°C, read-out: MIC
[26] = system: M. suipneumoniae ATCC 25095; assay: as above; format: cell-based; details: Mesomycoplasma hyopneumoniae, ATCC25095, 144 h, Friis broth solidified with 0.9% agarose, 6 days incubation at 37°C, read-out: MIC
[27] = system: Pasteurella multocida 1633; assay: Human bacteria, MIC by serial dilution in nutrient agar; format: cell-based; details: nutrient agar with 5% chocolated horse blood, 18 hours at 37°C, read-out: MIC
[28] = system: M. suipneumoniae MS16; assay: Anti-mycoplasmal activity, MIC in Friis broth agarose; format: cell-based; details: Mesomycoplasma hyopneumoniae, 144 h, Friis broth solidified with 0.9% agarose, 6 days incubation at 37°C, read-out: MIC
[29] = system: Strep. pyogenes R80/421-A; assay: Human bacteria, MIC by serial dilution in nutrient agar; format: cell-based; details: Streptococcus pyogenes, nutrient agar with 5% chocolated horse blood, 18 hours at 37°C, read-out: MIC
[30] = system: Strep. faecalis I; assay: as above; format: cell-based; details: Enterococcus faecalis, nutrient agar with 5% chocolated horse blood, 18 hours at 37°C, read-out: MIC
[31] = system: Past. multocida PA1; assay: Veterinary bacteria, MIC by two fold serial dilution in agar; details: Pasteurella multocida, PA1, 18 h
Method: as §1

[32] = system: M. suipneumoniae NB12; assay: Anti-mycoplasmal activity, MIC in Friis broth agarose; format: cell-based; details: Mesomycoplasma hyopneumoniae, 144 h, Friis broth solidified with 0.9% agarose, 6 days incubation at 37°C, read-out: MIC
[33] = system: Staph. aureus Russell; assay: Human bacteria, MIC by serial dilution in nutrient agar; format: cell-based; details: Staphylococcus aureus, nutrient agar with 5% chocolated horse blood, 18 hours at 37°C, read-out: MIC
[34] = system: Strep. spp. 64/848-C; assay: as above; format: cell-based; details: nutrient agar with 5% chocolated horse blood, 18 hours at 37°C, read-out: MIC
[35] = system: Erysipelothrix rhusiopathiae NCTC 8163; assay: Veterinary bacteria, MIC by two fold serial dilution in agar; details: Erysipelothrix rhusiopathiae, NCTC8163, 18 h
Method: as §1

[36] = system: E. coli NCTC 10418; assay: Human bacteria, MIC by serial dilution in nutrient agar; format: cell-based; details: Escherichia coli, NCTC10418; E. coli NCTC 10418 (human panel); nutrient agar with 5% chocolated horse blood; 18 hours at 37°C; read-out: MIC
[37] = system: Corynebacterium xerosis 9755; assay: as above; format: cell-based; details: nutrient agar with 5% chocolated horse blood, 18 hours at 37°C, read-out: MIC
[38] = system: M. hyorhinis ATCC 25021; assay: Anti-mycoplasmal activity, MIC in Friis broth agarose; format: cell-based; details: Mesomycoplasma hyorhinis, ATCC25021, 144 h, Friis broth solidified with 0.9% agarose, 6 days incubation at 37°C, read-out: MIC
[39] = system: K. aerogenes A; assay: Human bacteria, MIC by serial dilution in nutrient agar; format: cell-based; details: Klebsiella aerogenes, nutrient agar with 5% chocolated horse blood, 18 hours at 37°C, read-out: MIC
[40] = system: Past. multocida PA2; assay: Veterinary bacteria, MIC by two fold serial dilution in agar; details: Pasteurella multocida, PA2, 18 h
Method: as §1

[41] = system: M. bovis NCTC 10131; assay: microbe, parasite or virus in culture; format: cell-based; details: NCTC10131, 144 h

CSc1ccc(COC(=O)C=C(C)CC2OCC(CC3OC3C(C)C(C)O)C(O)C2O)cc1 (centres unmarked) [Example 1, p-Methylthiobenzyl monate A]
MIC [1]: > 80 µg/mL
MIC [2]: > 80 µg/mL
MIC [3]: 0.25 µg/mL (≈ 0.52 µM)
MIC [4]: 0.1 µg/mL (≈ 0.208 µM)
MIC [5]: > 80 µg/mL
MIC [6]: 0.25 µg/mL (≈ 0.52 µM)
MIC [7]: > 100 µg/mL
MIC [8]: 0.5 µg/mL (≈ 1.04 µM)
MIC [9]: > 80 µg/mL
MIC [10]: 0.5 µg/mL (≈ 1.04 µM)
MIC [11]: 0.312 µg/mL (≈ 0.649 µM)
MIC [12]: 0.156 µg/mL (≈ 0.325 µM)
MIC [13]: 0.5 µg/mL (≈ 1.04 µM)
MIC [14]: 2.5 µg/mL (≈ 5.2 µM)
MIC [15]: 0.156 µg/mL (≈ 0.325 µM)
MIC [16]: 0.25 µg/mL (≈ 0.52 µM)
MIC [17]: 5 µg/mL (≈ 10.4 µM)
MIC [18]: > 80 µg/mL
MIC [19]: 0.025 µg/mL (≈ 0.052 µM)
MIC [20]: 0.25 µg/mL (≈ 0.52 µM)
MIC [21]: 100 µg/mL (≈ 208 µM)
MIC [22]: 1 µg/mL (≈ 2.08 µM)
MIC [23]: 0.5 µg/mL (≈ 1.04 µM)
MIC [24]: 0.25 µg/mL (≈ 0.52 µM)
MIC [25]: 0.25 µg/mL (≈ 0.52 µM)
MIC [26]: 0.5 µg/mL (≈ 1.04 µM)
MIC [27]: 1 µg/mL (≈ 2.08 µM)
MIC [28]: 0.25 µg/mL (≈ 0.52 µM)
MIC [29]: 0.1 µg/mL (≈ 0.208 µM)
MIC [30]: 100 µg/mL (≈ 208 µM)
MIC [31]: 0.156 µg/mL (≈ 0.325 µM)
MIC [32]: 0.5 µg/mL (≈ 1.04 µM)
MIC [33]: 0.5 µg/mL (≈ 1.04 µM)
MIC [34]: 0.5 µg/mL (≈ 1.04 µM)
MIC [35]: 10 µg/mL (≈ 20.8 µM)
MIC [36]: 100 µg/mL (≈ 208 µM)
MIC [37]: > 100 µg/mL
MIC [38]: 0.25 µg/mL (≈ 0.52 µM)
MIC [39]: > 100 µg/mL
MIC [40]: 0.156 µg/mL (≈ 0.325 µM)
MIC [41]: ≤ 0.01 µg/mL
